Patent US5543410A, “Pharmacological use of phthaloylhydrazide derivatives; combination and application thereof” (L.I.M.A.D. Limited, priority 1993, dated 1996)

Assays:
[1] = system: Salmonella typhinurium endotoxin
[2] = system: mice exposed to carbon tetrachloride; settings: 10 to 20 mg/kg; control group 65 percent
[3] = system: proctitis attributable to radiation therapy
Description: B., a patient who was […], complained of burning sensations in the anus, along with frequent and painful urination, after having received radiation therapy for a period of forty-five days. During a rectosigmoidoscopy examination, intense edema and contact hemorrhaging within the rectal mucosae were observed above the tumor. The diagnosis was: proctitis and cystitis arising from radiation therapy. On account of a lack of specific therapeutic measures, the drug was prescribed for the patient according to a dose of 100 mg per day.

[4] = system: piglets affected by dysentery; assay: dysentery in piglets; assay type: in vivo
Protocol: Experiments were performed with piglets weighing from 30 to 40 kgs, which were affected by dysentery.
Nevertheless, symptoms reappeared six to seven hours later in one group of animals. This factor rendered repeated administration of the drug necessary.

skin diseases = settings: 1 to 2 percent solution, two or three days
anal fissures = system: anal fissures
Protocol: Similarly, anal fissures have represented a difficult problem for modern medicine to resolve. In this instance, the inflammatory component is associated with a morphological defect.
The drug was administered to this group of patients in the form of suppositories, in doses of 100 mg every twelve hours, during a five-day period.

[5] = system: TA 100, TA 102, and TA 97 S. typhi strains; assay: Ames' bacterial mutagenicity test; settings: 0.01 mg/ml to 2 mg/ml, rat liver microsome activation
[6] = system: dermatitis of unknown etiology
erysipelas = assay: erysipelas
anal adenocarcinoma = system: anal adenocarcinoma
Description: Kh., a patient who was […], had been diagnosed with an anal adenocarcinoma seven months earlier.
The diagnosis had been verified histologically. The patient cited pain in the anus, constipation, difficulty in defecating, and secretion of mucus and blood from the anus. On account of the patient's categorical refusal to undergo surgery for abdominoperineal excision of the rectum, radiation therapy had been provided in doses of […]. […] Forty days later, the patient underwent another cycle of radiation therapy, with doses of […]. During the next thirty days, the drug was administered in doses of 100 mg every four hours, in the form of rectal suppositories. […] For the next thirty days, the dosage of the drug was increased, and intramuscular administration of 100 mg per day was provided for this patient, along with a rectal suppository (100 mg).

AIDS = system: AIDS
Protocol: Treatment began with intramuscular administration of 100 mg doses of the drug, once daily.
The daily dosage of the drug was then increased to 400 mg.

[7] = 15 mg/kg intravenous, when clinical manifestations appeared
[8] = 100 mg suppositories morning and evening
[9] = after five to six days of treatment
[10] = 1 percent ointment plus 100 mg suppositories

## Nc1cccc2c(=O)[nH][nH]c(=O)c12
Malignant tumors; increasing doses and frequency
  expansion of malignant tumors: ensures inhibition of the expansion of malignant tumors
Malignant tumors; three patients
  tumor dimensions and general condition: favorable results represented by reduction of the dimensions of tumors and by an improvement in their general condition
Malignant tumors; total dose of 60 to 90 g
  effect in combination with radiation therapy: the effect upon its action is intensified
[1]; [7]
  diarrhea: diarrhea ceased completely
  time to reduction of intoxication symptoms: five to ten
[1]; 25 mg/kg
  alleviation of intoxication symptoms and diarrhea: complete alleviation of intoxication symptoms and diarrhea
[1]; 15 to 25 mg/kg
  intoxication symptoms (conclusion): prevent or eliminate intoxication symptoms
[1]; drug five minutes after endotoxin, third series
  alleviation of symptoms: partial alleviation of symptoms
[2]
  mortality rate: 14%
[3]; 100 mg per day, three days
  clinical effect: absence of any significant clinical effect
[3]; [8]
  time to decrease of anal burning and painful urination: one
  time until pain and burning no longer present: third
[3]; after the dosage was increased
  time to normal urination: fifth
[3]; ten days later
  rectosigmoidoscopy finding: regeneration of the capillary network within the rectal mucosae was observed
[4]; 50 mg/kg, fourth series
  effectiveness in alleviating diarrhea: limited effectiveness in alleviating diarrhea
[4]; 10, 25, and 50 mg/kg, third series
  therapeutic effect: relatively insignificant
[4]; 20 and 50 mg/kg, second series
  reappearance of dysentery symptoms: symptoms of dysentery reappeared at the end of the first day
[4]; 20 and 50 mg/kg, sixteen animals, second series
  instances with therapeutic effects: six
Skin diseases
  elimination of symptoms: sufficient to eliminate symptoms of various diseases
Anal fissures; 100 mg suppositories every twelve hours
  time until pain ceased: twenty to thirty
Anal fissures; [9]
  recurrences: Recurrences were not observed
  regeneration of the mucosae: regeneration of the mucosae was visually observable
Anal fissures; after the third suppository
  defecation and sphincter spasms: defecation became painless, and spasms affecting the sphincter diminished
Anal fissures; by the fifth day
  recovery: the patients had practically recovered
Anal fissures; rectal administration
  other symptoms: other symptoms were also eliminated by the end of the first day of treatment
  time to significant alleviation of the pain syndrome: twenty to forty
Autoimmune diseases; after an initial phase of treatment
  patients in whom subsequent development of pathological processes was prevented: 90%
Autoimmune diseases; suppositories, intravenous or intramuscular, repeated
  principal symptoms: allows alleviation of the principal symptoms of these diseases
[5]
  inhibitory or mutagenic activity: did not possess inhibitory or mutagenic activity
[6]; 30 mg emulsion three times daily, 50 mg suppositories on alternating days
  time to completed epithelization: fourteenth
[6]; after the second day
  affected cutaneous areas: began to become drier
erysipelas; [10]
  time until congestion and edema had diminished: twenty-four
  time until pain became less intense: five to six
erysipelas; by the end of the sixth day
  difficulties: the patient no longer cited difficulties
Anal adenocarcinoma; 100 mg every four hours rectal, thirty days, after radiation
  tumor size: reduction of the tumor was observed
Anal adenocarcinoma; 100 mg intramuscular per day plus 100 mg suppository, further thirty days
  reduction of anal tumor in relation to its initial dimensions: two-thirds
Anal adenocarcinoma; combination with radiation therapy
  tumor dimensions and intoxication (conclusion): reduction of the tumor's dimensions was therefore obtained within a brief period and symptoms of intoxication were eliminated
Anal adenocarcinoma; in vivo
  general condition: an improvement of the patient's general condition was observed
AIDS; 100 mg intramuscular once daily, three days
  therapeutic effects: no therapeutic effects had been observed
AIDS; 5 to 15 mg/kg daily, extended period
  complications of AIDS: significant prevention or reduction of complications
AIDS; continued daily administration
  further symptoms: further symptoms of the disease did not appear
AIDS; daily dose doubled
  therapeutic action: still not observable
AIDS; standard doses for inflammatory diseases
  effectiveness of standard doses: limited effectiveness
